This is an account of results in article PMC8607422, “Development of a novel TLR8 agonist for cancer immunotherapy” (Molecular Biomedicine, 2020).

The target of one data set is T1, hTLR4 (Homo sapiens, UniProt O00206+Q9Y6Y9).
T1 construct: host or cells: HEK-Blue hTLR4
Nature of the data set: HEK-Blue hTLR4 SEAP reporter agonist assay. Format: cell-based. Particulars: HEK-Blue hTLR4 cells, highest concentration 50 μM. An excerpt:
(§1) HEK-Blue™ hTLR4, 7, 8 and 9 cell lines were purchased from InvivoGen (Hong Kong). The cells express the human TLR gene and NF-κB/AP-1-inducible SEAP (secreted embryonic alkaline phosphatase) reporter gene. SEAP levels produced upon TLR stimulation can be determined by QUANTI-Blue™. In the cell-based assay, the main reagents used were QUANTI-Blue™ (InvivoGen) and ATPlite 1 Step (Perkin Elmer). The main instruments used were the microplate reader SpectraMax 340PC (Molecular Device) and Envision (Perkin Elmer). Motolimod and DN052 were synthesized in house. […] The compounds were in 10 mM stock solution in DMSO and stored at − 20°C. The compounds were serially diluted in the concentration range from 0.5 nM to 15 μM (up to 50 μM in the hTLR4, hTLR7 and hTLR9 assays) and added to 96-well plates. DMSO was used as the negative control. LPS-EK, R848, motolimod and ODN2006 were used as the positive control for TLR4, 7, 8 and 9, respectively. The cells were cultured and treated with the compounds at 37°C, 5%CO2 for 24 h. […] After 1.5 h of incubation, the optical density was measured using the spectrophotometer at 650 nm in the microplate reader of SpectraMax 340PC. The cell viability of each well was determined using ATPlite 1 Step following the manufacturer’s instruction. The luminescence signal in each well of plates was measured in the microplate reader of Envision.

Data set [1] in a line: Cell viability (ATPlite 1 Step) cytotoxicity assay. The conditions noted are these: human, HEK-Blue hTLR7 and hTLR8 cells. The data set is classed as cell-based.
From the text: as §1

In the next data set the target is T2, CYP 1A2 (Homo sapiens, UniProt P05177).
T2 construct: using human liver microsomes (BD Gentest); tissue BD Gentest; host or cells: human liver microsomes
T2 sequence (P05177 1-516): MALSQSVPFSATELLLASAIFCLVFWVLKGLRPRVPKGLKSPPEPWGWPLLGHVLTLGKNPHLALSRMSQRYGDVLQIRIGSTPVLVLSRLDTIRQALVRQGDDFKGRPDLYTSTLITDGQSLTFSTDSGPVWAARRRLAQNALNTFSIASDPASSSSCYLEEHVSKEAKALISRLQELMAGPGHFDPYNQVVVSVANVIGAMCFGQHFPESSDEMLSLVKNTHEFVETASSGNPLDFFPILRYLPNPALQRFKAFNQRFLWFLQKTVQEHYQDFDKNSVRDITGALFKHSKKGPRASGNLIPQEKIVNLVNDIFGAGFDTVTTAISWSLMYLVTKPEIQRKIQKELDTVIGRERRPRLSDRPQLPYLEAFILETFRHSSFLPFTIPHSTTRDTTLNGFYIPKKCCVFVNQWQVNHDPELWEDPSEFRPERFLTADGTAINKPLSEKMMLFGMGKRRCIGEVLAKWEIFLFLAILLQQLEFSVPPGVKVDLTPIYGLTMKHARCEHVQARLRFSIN
Nature of the data set: CYP inhibition assay in human liver microsomes. Format: in vitro ADME. On the procedure:
(§2) CYP inhibition assay was conducted to evaluate the inhibitive potential of the compounds on CYP 1A2, 2C9, 2C19, 2D6 and 3A4 using human liver microsomes (BD Gentest). Curve-fitting was performed to calculate IC50 using a Sigmoidal (non-linear) dose-response model using GraphPad Prism (GraphPad Software Inc.).
In general terms: Liver microsomes are vesicles of endoplasmic reticulum, rich in cytochrome P450 enzymes.

The target of a further data set is T3, CYP 2C19 (Homo sapiens, UniProt P33261).
T3 construct: using human liver microsomes (BD Gentest); tissue BD Gentest; host or cells: human liver microsomes
T3 sequence (P33261 whole entry): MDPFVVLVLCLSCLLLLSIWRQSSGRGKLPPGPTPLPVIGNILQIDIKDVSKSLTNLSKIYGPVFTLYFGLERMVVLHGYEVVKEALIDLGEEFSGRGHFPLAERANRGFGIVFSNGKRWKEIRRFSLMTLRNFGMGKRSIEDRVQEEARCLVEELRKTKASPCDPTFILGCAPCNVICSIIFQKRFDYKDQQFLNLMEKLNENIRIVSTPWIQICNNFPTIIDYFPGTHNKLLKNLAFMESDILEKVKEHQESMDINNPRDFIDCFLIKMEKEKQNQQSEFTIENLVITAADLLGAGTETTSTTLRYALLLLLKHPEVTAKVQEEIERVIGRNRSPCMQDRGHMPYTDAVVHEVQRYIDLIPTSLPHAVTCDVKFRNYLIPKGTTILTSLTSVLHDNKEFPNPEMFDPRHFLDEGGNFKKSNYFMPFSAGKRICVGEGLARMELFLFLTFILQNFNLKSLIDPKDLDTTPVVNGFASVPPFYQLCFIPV
In words: CYP inhibition assay in human liver microsomes. Format: in vitro ADME. How it is done:
as §2

The target in another data set is T4, CYP 2C9 (Homo sapiens, UniProt P11712).
T4 construct: using human liver microsomes (BD Gentest); tissue BD Gentest; host or cells: human liver microsomes
T4 sequence (P11712 whole entry): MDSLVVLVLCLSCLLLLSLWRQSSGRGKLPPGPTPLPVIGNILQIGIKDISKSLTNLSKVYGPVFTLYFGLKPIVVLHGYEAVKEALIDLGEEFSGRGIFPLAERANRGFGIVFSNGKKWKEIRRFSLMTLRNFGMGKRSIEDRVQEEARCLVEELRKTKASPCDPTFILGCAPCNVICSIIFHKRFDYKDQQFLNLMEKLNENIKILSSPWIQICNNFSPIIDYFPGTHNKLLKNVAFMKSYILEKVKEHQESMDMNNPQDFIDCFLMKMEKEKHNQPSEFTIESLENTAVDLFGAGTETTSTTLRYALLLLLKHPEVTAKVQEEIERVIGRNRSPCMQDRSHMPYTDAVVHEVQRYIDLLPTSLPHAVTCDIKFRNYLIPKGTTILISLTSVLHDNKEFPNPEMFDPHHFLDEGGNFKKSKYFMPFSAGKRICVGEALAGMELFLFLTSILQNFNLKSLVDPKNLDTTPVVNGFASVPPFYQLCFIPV
In words: CYP inhibition assay in human liver microsomes. The data set is classed as in vitro ADME. How it is done:
as §2

Another data set deals with T5, CYP 2D6 (Homo sapiens, UniProt P10635).
T5 construct: using human liver microsomes (BD Gentest); tissue BD Gentest; host or cells: human liver microsomes
T5 sequence (P10635 whole entry): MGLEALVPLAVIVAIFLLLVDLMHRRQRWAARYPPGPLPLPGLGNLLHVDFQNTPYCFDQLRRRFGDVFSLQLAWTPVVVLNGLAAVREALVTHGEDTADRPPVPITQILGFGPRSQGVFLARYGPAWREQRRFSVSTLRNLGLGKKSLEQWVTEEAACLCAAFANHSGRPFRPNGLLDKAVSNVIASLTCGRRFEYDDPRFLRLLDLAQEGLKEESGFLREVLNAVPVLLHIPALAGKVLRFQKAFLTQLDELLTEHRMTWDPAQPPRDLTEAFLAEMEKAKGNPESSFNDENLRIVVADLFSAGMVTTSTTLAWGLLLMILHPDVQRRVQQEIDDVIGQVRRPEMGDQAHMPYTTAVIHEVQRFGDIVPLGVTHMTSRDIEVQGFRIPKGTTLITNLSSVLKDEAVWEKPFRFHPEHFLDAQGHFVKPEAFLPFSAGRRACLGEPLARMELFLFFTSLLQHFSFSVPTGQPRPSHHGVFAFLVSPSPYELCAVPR
Nature of the data set: CYP inhibition assay in human liver microsomes. Format: in vitro ADME. How it is done: as §2

A further data set has as its target T6, CYP 3A4 (Homo sapiens, UniProt P08684).
T6 construct: using human liver microsomes (BD Gentest); tissue BD Gentest; host or cells: human liver microsomes
In words: CYP inhibition assay in human liver microsomes. The data set is classed as in vitro ADME. On the procedure:
as §2

Data set [2] deals with HL-60 human acute promyelocytic leukemia (AML) cells. Nature of the data set: Human HL-60 AML mouse xenograft model. The data set is classed as in vivo. Particulars: HL-60 AML xenograft, NOD/SCID mice, 1.3 mg/kg sc once a week. On the procedure: All the animal experiments were conducted following Association for Assessment and Accreditation of Laboratory Animal Care (AAALAC)‘s guideline. The animal protocols were approved by the Institutional Animal Care and Use Committee (IACUC). Cell lines were purchased from credible vendors including ATCC. After tumor cell inoculation, the animals were checked daily for morbidity and mortality. At the time of routine monitoring, the animals were checked for any effects of tumor growth and treatment on the animals’ well-being such as mobility, food and water consumption, body weight gain/loss, matting and any other abnormalities. Clinical observations were recorded. Tumor volumes were measured twice a week in two dimensions using a caliper and the volume was expressed in mm^3 using the formula: V = 0.5 a × b^2 where a and b are the long and short diameters of the tumor, respectively. The procedures of dosing as well as tumor and body weight measurement were conducted in a laminar flow cabinet.
For HL-60 experiment, HL-60 human acute promyelocytic leukemia (AML) cells were cultured in vitro in suspension in RPMI1640 medium supplemented with 10% fetal bovine serum and 1% penicillin/streptomycin at 37°C in an atmosphere of 5% CO2 in air. The tumor cells were routinely passaged twice per week. The cells growing in the exponential growth phase were harvested and counted for tumor inoculation. […]

On the set-up of data set [3]: method as in Northfelt, et al., [39]. Particulars: human, sc 0.1 mg/m^2; ref Northfelt, et al., [39]; cited from earlier work.

pEC50, pIC50: −log10 of the molar value. A value given as a limit tells only on which side of the number the result lay.

T6 sequence (P08684 whole entry): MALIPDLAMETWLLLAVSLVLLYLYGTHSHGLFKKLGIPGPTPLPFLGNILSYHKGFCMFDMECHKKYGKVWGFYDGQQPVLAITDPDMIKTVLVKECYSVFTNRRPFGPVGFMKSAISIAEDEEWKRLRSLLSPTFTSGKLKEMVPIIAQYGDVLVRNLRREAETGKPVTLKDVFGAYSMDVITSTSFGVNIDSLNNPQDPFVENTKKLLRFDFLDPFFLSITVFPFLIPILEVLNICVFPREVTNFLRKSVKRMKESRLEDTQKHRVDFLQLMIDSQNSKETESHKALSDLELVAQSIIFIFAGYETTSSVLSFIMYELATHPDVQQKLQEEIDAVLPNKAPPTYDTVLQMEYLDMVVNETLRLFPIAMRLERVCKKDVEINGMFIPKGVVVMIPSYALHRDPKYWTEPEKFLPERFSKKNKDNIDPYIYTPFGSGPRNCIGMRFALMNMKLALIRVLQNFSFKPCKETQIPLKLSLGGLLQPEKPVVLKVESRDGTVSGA
T1 sequence (O00206 24-839): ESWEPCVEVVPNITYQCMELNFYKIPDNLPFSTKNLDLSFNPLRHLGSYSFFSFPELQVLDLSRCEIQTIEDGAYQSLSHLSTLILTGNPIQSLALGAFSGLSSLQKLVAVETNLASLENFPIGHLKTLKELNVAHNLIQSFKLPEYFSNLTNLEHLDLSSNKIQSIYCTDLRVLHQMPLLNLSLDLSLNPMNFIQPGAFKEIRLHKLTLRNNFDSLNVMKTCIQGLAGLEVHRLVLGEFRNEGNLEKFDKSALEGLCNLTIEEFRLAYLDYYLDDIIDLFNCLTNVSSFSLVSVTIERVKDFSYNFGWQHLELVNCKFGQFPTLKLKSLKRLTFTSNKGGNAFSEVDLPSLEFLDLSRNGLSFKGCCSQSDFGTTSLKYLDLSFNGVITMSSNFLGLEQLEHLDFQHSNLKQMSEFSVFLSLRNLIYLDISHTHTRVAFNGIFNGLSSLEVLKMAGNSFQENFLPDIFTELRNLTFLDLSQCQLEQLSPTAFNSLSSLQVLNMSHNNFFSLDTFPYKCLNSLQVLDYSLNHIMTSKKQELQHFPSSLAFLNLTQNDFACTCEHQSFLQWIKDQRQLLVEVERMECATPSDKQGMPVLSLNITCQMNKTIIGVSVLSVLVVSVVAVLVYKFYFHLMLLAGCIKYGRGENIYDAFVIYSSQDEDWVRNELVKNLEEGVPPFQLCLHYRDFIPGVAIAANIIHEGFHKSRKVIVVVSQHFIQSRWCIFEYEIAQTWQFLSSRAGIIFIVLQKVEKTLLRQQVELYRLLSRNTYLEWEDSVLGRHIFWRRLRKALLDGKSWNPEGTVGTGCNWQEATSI
T1 sequence (Q9Y6Y9 17-160 limits assumed): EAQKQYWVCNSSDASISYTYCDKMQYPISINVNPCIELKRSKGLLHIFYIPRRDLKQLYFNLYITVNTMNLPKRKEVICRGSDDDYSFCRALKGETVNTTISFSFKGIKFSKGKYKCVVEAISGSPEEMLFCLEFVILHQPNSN

By pEC50 is commonly meant the negative decadic logarithm of the EC50, by convention in mol/L. One may read the CC50 as the concentration at which the toxic effect on the cells reaches its halfway point. Read a low CC50 as harm at low concentration. What is called pIC50 is −log10 of the IC50, conventionally taken in molar units. Low values mean a high IC50, high ones a low IC50. The AUC(0-t) is exposure summed from dosing to a finite time, without extrapolation to infinity. The Cmax is the maximum level reached in the sampled fluid or tissue. One may read the Tmax as the time at which the peak concentration occurs. Molecule `CCCN(CCC)C(=O)C1=Cc2ccc(-c3ccc(C(=O)N4CCCC4)cc3)cc2N=C(N)C1` [Motolimod, motolimod] gave a negative logarithm of the EC50 (pEC50) at hTLR4 below 4.30. This molecule also returned a 50% cytotoxic concentration (CC50) at 24 h in data set [1] above 50 µM. The negative-log IC50 (pIC50) on CYP 1A2, on CYP 2C19, at CYP 2C9, against CYP 2D6 and against CYP 3A4 was below 5.00 each time. Besides, in data set [2], the “tumor growth inhibition (TGI) rate” value amounted to 17%. Moreover, the exposure AUC(0-t) in data set [3] was 2.99 ng·h/mL. The Cmax in data set [3] was 1.52 ng/mL. Moreover, the Tmax in data set [3] is 0.53 h. Moreover, in data set [3], the t1/2 is 1.73 h.
